The values below come from patent US20050197651A1, “Vaginal ring preparation and its application” (priority 2001, published 2005).

Molecules are shown by their SMILES.

A short description of this data set: Drug releasing test of the vaginal ring (shaking water bath, HPLC). The class given is physicochemical. As to conditions: device of the current invention vs prior art device, FIG. 4 vs FIG. 3 and FIG. 6 vs FIG. 5. The procedure: Drug Releasing Test: Devices used: 1. High Pressure Liquid Chromatography (HPLC). Shimadzu LC-1 OA T • 2. Shaking water bath: HZS-H Process: • 1. Tie the vaginal ring into a big test tube (125 ml). Add 100 ml distilled water into the tube under 37C. Shake the testing tube for 24 hours with shaking rate of 60/minute. Then take the vaginal ring out. • 2. The standard sample is the Mifepristone provided by Shanghai Family Planning Institute. • 3. C-18-[…] Analytic column (Brand: Shimadzu): Pre-set HPLC. The testing conditions are: • Wavelength 310 nm. • Sensitivity: 0.1 AUFS • Speed: 3 Atten. 5 • Flow phase: methanol: water=70:30 • Moving speed=1 ml/minute • Injection amount: 10 μl • Peak time: 5.48 minutes Take 23 μl/ml standard sample, 10 μl injection sample to get the peak area of 656504-656800. Prepare the calibration based on the amount contained in 100 ml.

Turning to `C#C[C@]1(O)CC[C@H]2[C@@H]3CCC4=Cc5oncc5C[C@]4(C)[C@H]3CC[C@@]21C` [Danazol], the “delivery rate over days, compared with prior art vaginal ring” value is “higher delivery rate of this drug over a longer period of time”.
To `CC#C[C@]1(O)CC[C@H]2[C@@H]3CCC4=CC(=O)CCC4=C3[C@@H](c3ccc(N(C)C)cc3)C[C@@]21C` [Mifestone, Mifepristone] belongs “significantly higher over a longer period of time”.
